These results are taken from patent US7759337B2, “Phthalazine compounds and methods of use” (Amgen Inc., priority 2005, dated 2010).

For orientation: IC50 means the midpoint of a concentration-inhibition curve. The low end stands for higher potency, the high end for lower potency.

In this assay the test system is production of TNF by monocytes activated with bacterial lipopolysaccharide (LPS). In words: Lipopolysaccharide-activated monocyte TNF production assay. As to conditions: Homo sapiens; whole blood monocyte assay (LPS induced TNF release). Type of assay: cell-based. In outline:
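Adherent human PBMC-derived monocytes preincubated 60 min with nine two-fold compound dilutions, then stimulated with E. coli K532 LPS (30 ng/mL in the added medium) for 4 h at 37 °C. Supernatant TNF measured by sandwich ELISA; IC50 is the compound concentration halving TNF production, from second-order polynomial fits.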
With `CC[C@@H](C)Oc1nncc2cc(-c3cc(C(N)=O)ccc3C)ccc12` [Example 324, 4-methyl-3-(1-{[(1R)-1-methylpropyl]oxy}phthalazin-6-yl)benzamide], the IC50 is at most 5 µM.
`Cc1ccccc1-c1nncc2cc(Oc3cccc(Cl)c3)ccc12` [Example 338, 6-(3-chlorophenoxy)-1-(2-methylphenyl)phthalazine] had an IC50 of at most 5 µM.
For `CCOc1cc(Cl)ccc1-c1nncc2cc(-c3cc(C(N)=O)ccc3C)ccc12` [Example 238, 3-[1-(4-chloro-2-ethoxyphenyl)phthalazin-6-yl]-4-methylbenzamide] the value was at most 5 µM.
For `Cc1ccc(C(=O)NC2CC2)cc1-c1ccc2c(NCCN3CCOCC3)nncc2c1` [Example 111, N-cyclopropyl-4-methyl-3-{1-[(2-morpholin-4-ylethyl)amino]phthalazin-6-yl}benzamide] the value was at most 5 µM; for `Cc1ccc(C(=O)NC2CC2)cc1-c1ccc2c(C#N)nncc2c1` [Example 79, 3-(1-cyanophthalazin-6-yl)-N-cyclopropyl-4-methylbenzamide], at most 5 µM.
`Cc1ccc(C(=O)NC2CC2)cc1-c1ccc2c(-c3ccc(C(F)(F)F)cc3C(F)(F)F)nncc2c1` [Example 11, 3-(1-(2,4-bis(trifluoromethyl)phenyl)phthalazin-6-yl)-N-cyclopropyl-4-methylbenzamide] gave an IC50 of at most 5 µM.
The compound `Cc1ccc(C(N)=O)cc1-c1ccc2c(-c3ccc(S(C)(=O)=O)cc3C)nncc2c1` [Example 96, 4-methyl-3-(1-(2-methyl-4-(methylsulfonyl)phenyl)phthalazin-6-yl)benzamide] had an IC50 of at most 5 µM.
For `CC[C@H](C)Oc1nncc2cc(-c3cc(C(N)=O)ccc3C)ccc12` [Example 322, 4-methyl-3-(1-{[(1S)-1-methylpropyl]oxy}phthalazin-6-yl)benzamide] the value was at most 5 µM.
The value for `CC(C)Nc1noc2c(-c3ccc4c(N5CCOC[C@@H]5C)nncc4c3)c(Cl)ccc12` [Example 402, 6-chloro-N-isopropyl-7-{1-[(3S)-3-methylmorpholin-4-yl]phthalazin-6-yl}-1,2-benzisoxazol-3-amine] was at most 5 µM.
`COc1ccc(-c2nncc3cc(-c4cc(C(N)=O)ccc4C)ccc23)c(C(F)(F)F)c1` [Example 237, 3-{1-[4-methoxy-2-(trifluoromethyl)phenyl]phthalazin-6-yl}-4-methylbenzamide] registered an IC50 of at most 5 µM.
The value for `COc1ncc(-c2nncc3cc(-c4cc(C(=O)NC5CC5)ccc4C)ccc23)c(OC)n1` [Example 234, N-cyclopropyl-3-[1-(2,4-dimethoxypyrimidin-5-yl)phthalazin-6-yl]-4-methylbenzamide] was at most 5 µM; that for `CC(=O)N1CCN(c2nncc3cc(-c4cc(C(=O)NC5CC5)ccc4C)ccc23)[C@@H](C)C1` [Example 371, 3-{1-[(2S)-4-acetyl-2-methylpiperazin-1-yl]phthalazin-6-yl}-N-cyclopropyl-4-methylbenzamide] was at most 5 µM.
The value for `Cc1ccc(C(=O)NC2CC2)cc1-c1ccc2c(N3C[C@@H](C)NC[C@@H]3C)nncc2c1` [Example 147, N-cyclopropyl-3-{1-[(2S,5R)-2,5-dimethylpiperazin-1-yl]phthalazin-6-yl}-4-methylbenzamide] was at most 5 µM; that for `Cc1ccc(C(=O)NC2CC2)cc1-c1ccc2c(C(=O)N3CCOCC3)nncc2c1` [Example 85, N-Cyclopropyl-4-methyl-3-[1-(morpholin-4-ylcarbonyl)phthalazin-6-yl]benzamide] was at most 5 µM; that for `Cc1ccc(C(N)=O)cc1-c1ccc2c(N3CCCC3=O)nncc2c1` [Example 94, 4-methyl-3-(1-(2-oxopyrrolidine-1-yl)phthalazin-6-yl)benzamide] was at most 5 µM.
As to `Cc1ccc(C(=O)NC2CC2)cc1-c1ccc2c(OCC(C)(C)C)nncc2c1` [Example 326, N-cyclopropyl-4-methyl-3-[1-(neopentyloxy)phthalazin-6-yl]benzamide], the IC50 is at most 5 µM.
For `Cc1ccc(C(=S)NC2CC2)cc1-c1ccc2c(N3CCOCC3)nncc2c1` [Example 109, N-Cyclopropyl-4-methyl-3-(1-morpholinophthalazin-6-yl)benzothioamide] the value was at most 5 µM; for `Cc1ccc2c(N)noc2c1-c1ccc2c(N3CCOC[C@@H]3C)nncc2c1` [Example 387, 6-methyl-7-{1-[(3S)-3-methylmorpholin-4-yl]phthalazin-6-yl}-1,2-benzisoxazol-3-amine], at most 5 µM; for `COc1ncccc1-c1nncc2cc(-c3cc(C(N)=O)ccc3C)ccc12` [Example 228, 3-[1-(2-methoxypyridin-3-yl)phthalazin-6-yl]-4-methylbenzamide], at most 5 µM.
`Cc1ccc(C(=O)NC2CC2)cc1-c1ccc2c(N3CCn4c(nnc4C(F)(F)F)C3)nncc2c1` [Example 104, N-cyclopropyl-4-methyl-3-(1-(3-(trifluoromethyl)-5,6-dihydro-[1,2,4]triazolo[4,3-a]pyrazin-7(8H)-yl)phthalazin-6-yl)benzamide] yielded an IC50 of at most 5 µM.
For `Cc1ccc(C(N)=O)cc1-c1ccc2c(-c3cncnc3)nncc2c1` [Example 215, 4-methyl-3-(1-pyrimidin-5-ylphthalazin-6-yl)benzamide] the value was at most 5 µM; for `Cc1ccc(C(=O)NC2CC2)cc1-c1ccc2c(NC3CCC(O)CC3)nncc2c1` (stereo not shown) [Example 312, N-cyclopropyl-3-{1-[(4-hydroxycyclohexyl)amino]phthalazin-6-yl}-4-methylbenzamide], at most 5 µM; for `Cc1ccc(Oc2nncc3cc(-c4cc(C(N)=O)ccc4C)ccc23)c(C)c1` [Example 321, 3-[1-(2,4-dimethylphenoxy)phthalazin-6-yl]-4-methylbenzamide], at most 5 µM.
For `Cc1ccc(C(=O)NC2CC2)cc1-c1ccc2c(NC[C@@H]3CCCO3)nncc2c1` [Example 309, N-cyclopropyl-4-methyl-3-(1-{[(2S)-tetrahydrofuran-2-ylmethyl]amino}phthalazin-6-yl)benzamide] the value was at most 5 µM; for `COc1nncc2cc(-c3cc(C(N)=O)ccc3C)ccc12` [Example 118, 3-(1-methoxyphthalazin-6-yl)-4-methylbenzamide], at most 5 µM.
The value for `Cc1ccc(-c2nnn[nH]2)cc1-c1ccc2c(N3CCOCC3)nncc2c1` [Example 77, 6-[2-Methyl-5-(1H-tetraazol-5-yl)phenyl]-1-morpholin-4-ylphthalazine] was at most 5 µM; that for `COc1ccccc1-c1nncc2cc(Oc3ccc(C)cc3)ccc12` [Example 334, 1-(2-methoxyphenyl)-6-(4-methylphenoxy)phthalazine] was at most 5 µM.
`Cc1ccc(C(=O)NC2CC2)cc1-c1ccc2c(NC3CCCCC3)nncc2c1` [Example 158, 3-[1-(cyclohexylamino)phthalazin-6-yl]-N-cyclopropyl-4-methylbenzamide] showed an IC50 of at most 5 µM.
`Cc1ccc(C(=O)NC2CC2)cc1-c1ccc2c(N3CCCC[C@@H]3C)nncc2c1` [Example 97, N-cyclopropyl-4-methyl-3-{1-[(2S)-2-methylpiperidin-1-yl]phthalazin-6-yl}benzamide] had an IC50 of at most 5 µM.
As for `Cc1ccc(C(=O)NC2CC2)cc1-c1ccc2c(C3=CCNCC3)nncc2c1` [Example 62, N-cyclopropyl-4-methyl-3-(1-(1,2,3,6-tetrahydropyridin-4-yl)phthalazin-6-yl)benzamide], the IC50 was at most 5 µM.
In the case of `COc1nc(N(C)C)ncc1-c1nncc2cc(-c3cc(C(=O)NC4CC4)ccc3C)ccc12` [Example 197, N-cyclopropyl-3-{1-[2-(dimethylamino)-4-methoxypyrimidin-5-yl]phthalazin-6-yl}-4-methylbenzamide], the IC50 was at most 5 µM.
Compound `CSc1ccc(-c2nncc3cc(-c4cc(C(=O)NC5CC5)ccc4C)ccc23)c(C)c1` [Example 261, N-cyclopropyl-4-methyl-3-{1-[2-methyl-4-(methylsulfanyl)phenyl]phthalazin-6-yl}benzamide] registered an IC50 of at most 5 µM.
The value for `CNc1noc2c(-c3ccc4c(-c5cccnc5C)nncc4c3)c(C)ccc12` [Example 247, N,6-dimethyl-7-[1-(2-methylpyridin-3-yl)phthalazin-6-yl]-1,2-benzisoxazol-3-amine] was at most 5 µM; that for `CC[C@H](C)Nc1nncc2cc(-c3cc(C(N)=O)ccc3C)ccc12` [Example 303, 4-methyl-3-(1-{[(1S)-1-methylpropyl]amino}phthalazin-6-yl)benzamide] was at most 5 µM; that for `COc1ncccc1-c1ccc2c(-c3cccnc3OC)nncc2c1` [Example 375, 1,6-bis(2-methoxypyridin-3-yl)phthalazine] was at most 5 µM.
`CCN(CC)CCNc1nncc2cc(-c3cc(C(=O)NC4CC4)ccc3C)ccc12` [Example 186, N-cyclopropyl-3-(1-{[2-(diethylamino)ethyl]amino}phthalazin-6-yl)-4-methylbenzamide] displayed an IC50 of at most 5 µM.
With `Cc1ccc(C(=O)NC2CC2)cc1-c1ccc2c(N3CCN(C(=O)Nc4ccccc4)CC3)nncc2c1` [Example 124, 4-(6-{5-[(cyclopropylamino)carbonyl]-2-methylphenyl}phthalazin-1-yl)-N-phenylpiperazine-1-carboxamide], the IC50 was at most 5 µM.
The value for `Cc1ccc(-c2nncc3cc(-c4cc(C(N)=O)ccc4C)ccc23)c(Cl)n1` [Example 211, 3-[1-(2-chloro-6-methylpyridin-3-yl)phthalazin-6-yl]-4-methylbenzamide] was at most 5 µM.
`Cc1ccc(C(=O)NC2CC2)cc1-c1ccc2c(-c3cccnc3C)nncc2c1` [Example 241, N-cyclopropyl-4-methyl-3-[1-(2-methylpyridin-3-yl)phthalazin-6-yl]benzamide]: the IC50 was at most 5 µM.
The compound `Cc1ccc(C(=O)NC(C)C)cc1-c1ccc2c(NC(C)C)nncc2c1` [Example 404, N-isopropyl-3-[1-(isopropylamino)phthalazin-6-yl]-4-methylbenzamide] displayed an IC50 of at most 5 µM.
